Measurements published in patent US12679878B2, “CRF2 receptor agonists and their use in therapy” (SANOFI, priority 2020, dated 2026).
≈ marks a conversion by molar mass, not a printed value. Starred links: 1 amine or outer side, 2 acyl side, 3 side chain; linkers in the order of their positions; H or OH if unused. Non-standard residues stand in square brackets, D forms with d. Residues, ends and D or L forms follow the SMILES beside them. Groups on a side chain read outwards from the residue. *: point of attachment. C18 diacid = O=C(O)CCCCCCCCCCCCCCCCC(=O)*; γGlu = O=C(O)[C@H](CCC(=O)[*:2])N[*:1]; Palmitoyl = CCCCCCCCCCCCCCCC(=O)*; AEEA = NCCOCCOCC(=O)O

Assays:
human CRF2α receptor = target: T1, human CRF2α receptor (Homo sapiens, UniProt Q13324); experiment: cAMP agonism at human CRF2 α receptor in TeloHEAC cells (Example 7); type: cell-based; details: cAMP HTRF, TeloHEAC cells stably expressing human CRF2 α, 0% HSA; read-out: EC50 [nM], 0% HSA
T1 construct: expressed in transfected cells; host or cells: TeloHEAC
T1 sequence (Q13324 1-411): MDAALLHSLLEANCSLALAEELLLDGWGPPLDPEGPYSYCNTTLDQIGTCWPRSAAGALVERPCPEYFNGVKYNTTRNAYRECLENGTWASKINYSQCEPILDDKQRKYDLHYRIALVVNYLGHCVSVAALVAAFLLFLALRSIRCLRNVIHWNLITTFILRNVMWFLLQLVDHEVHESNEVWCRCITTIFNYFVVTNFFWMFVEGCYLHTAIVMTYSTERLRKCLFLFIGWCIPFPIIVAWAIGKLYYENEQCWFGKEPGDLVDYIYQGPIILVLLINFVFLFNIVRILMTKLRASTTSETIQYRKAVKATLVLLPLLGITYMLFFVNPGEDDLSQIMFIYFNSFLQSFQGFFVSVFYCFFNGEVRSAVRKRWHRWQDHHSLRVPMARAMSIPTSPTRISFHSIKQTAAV
How it was run: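 HTRF ratio 665/620 nm, read 1 h after lysis reagents, reports cAMP. Cells: thawed stocks, 2000/well, 30 min RT with compound in HBSS, 20 mM HEPES, 0 or 0.1% HSA, 2 mM IBMX. Activity normalised to UCN2 1000 nM = 100%; EC50 from half-maximal activation.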

rat CRF2R α receptor = experiment: cAMP agonism at rat CRF2R α receptor in A7R5 rat aortic smooth muscle cells (Example 8); type: cell-based; details: cAMP HTRF, A7R5 rat aortic smooth muscle cell line, 0% HSA
How it was run: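 Thawed cryopreserved A7R5 cells in HBSS/20 mM HEPES (0 or 0.1% HSA) with 2 mM IBMX, 2000 cells/well, were exposed to compound for 30 min at room temperature. cAMP was read by HTRF (665/620 nm ratio) after 1 h with lysis reagents. Activity was normalised to 1000 nM urocortin 2 as 100%, and EC50 was taken as the concentration giving 50% of maximal activation.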

[1] = Solubility in buffer systems by UPLC-UV (Example 13); type: physicochemical
Description: Prior to performing the solubility measurements, the purity of the compounds was determined through UPLC/MS. […] Therefore, solutions from solid samples were prepared in a buffer system with a concentration of 10 mg/mL compound based on the previously determined % purity.
UPLC-UV was performed after 1 hour of gentle agitation from the supernatant, which was obtained after 15 minutes of centrifugation at 2500 RCF (relative centrifugal acceleration). The solubility was determined by the comparison of the UV peak area of a 2 μL-injection of a buffered sample diluted 1:10 with a standard curve of a reference compound with known concentration. The different UV extinction coefficients of sample and reference compound were calculated based on the different amino acid sequences and considered in the concentration calculation.

CRF1R receptor = target: T2, CRF1R receptor (Homo sapiens, UniProt P34998); experiment: cAMP activity at anti-target CRF1R, CRF1R-overexpression CHO cell line (Example 9); type: cell-based; details: CRF1R-overexpression CHO cell line; for EC50: 0% HSA; for Emax: read-out: Emax (%)
T2 construct: host or cells: CHO-K1 clone 2
T2 sequence (P34998 24-415): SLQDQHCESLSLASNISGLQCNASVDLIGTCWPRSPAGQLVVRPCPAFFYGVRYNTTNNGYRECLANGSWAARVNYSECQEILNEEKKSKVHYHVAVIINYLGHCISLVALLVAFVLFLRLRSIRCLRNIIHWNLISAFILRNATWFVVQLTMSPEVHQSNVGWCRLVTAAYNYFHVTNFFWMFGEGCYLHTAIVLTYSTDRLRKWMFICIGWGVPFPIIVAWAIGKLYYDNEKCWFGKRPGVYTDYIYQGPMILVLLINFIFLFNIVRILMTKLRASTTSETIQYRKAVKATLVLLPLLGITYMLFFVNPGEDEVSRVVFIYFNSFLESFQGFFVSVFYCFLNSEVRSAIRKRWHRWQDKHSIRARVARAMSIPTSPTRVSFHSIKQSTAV
How it was run: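 cAMP accumulation was read by HTRF after 30 min at room temperature of compound treatment. Cells were cryopreserved CHO cells overexpressing CRF1R, plated at 2000/well in IBMX (2 mM)-containing HBSS/HEPES buffer with 0 or 0.1% HSA. Activity was normalized to 1000 nM UCN2 as 100%.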

[2] = pH 7.4, Solubility in Buffer C [mg/ml]

Row | EC50 (human CRF2α receptor) | EC50 (rat CRF2R α receptor) | solubility at 1 h ([1]; pH 4.5, Solubility in Buffer A [mg/ml]) | solubility at 1 h ([1]; pH 4.5, Solubility in Buffer B [mg/ml]) | EC50 (CRF1R receptor) | Emax (CRF1R receptor) | solubility at 1 h [1, 2] | Structure (SMILES)
1 | 0.03 nM | 0.02 nM | > 10200 µg/mL | > 9300 µg/mL | – | – | – | CCCCCCCCCCCCCCCC(=O)N[C@@H](CCC(=O)NCCCC[C@H](NC(=O)[C@H](CC(C)C)NC(=O)[C@H](CCCCN)NC(=O)[C@@H](NC(=O)[C@@H]1CCCN1C(=O)[C@H](NC(=O)[C@H](CC(=O)O)NC(=O)[C@H](CC(C)C)NC(=O)[C@H](CO)NC(=O)[C@H](CC(C)C)NC(=O)[C@@H](NC(=O)[C@@H](N)[C@@H](C)CC)C(C)C)C(C)C)[C@@H](C)O)C(=O)N[C@@H](CCC(N)=O)C(=O)N[C@@H](CCCCN)C(=O)N[C@@H](CC(C)C)C(=O)N[C@@H](CC(C)C)C(=O)N[C@@H](CCCCN)C(=O)N[C@@H](CCC(N)=O)C(=O)N[C@@H](CCC(=O)O)C(=O)N[C@@H](CCCNC(=N)N)C(=O)N[C@@H](CCC(N)=O)C(=O)N[C@@H](CCCNC(=N)N)C(=O)N[C@@H](CCCCN)C(=O)N[C@@H](CCC(=O)O)C(=O)N[C@@H](CCCNC(=N)N)C(=O)N[C@@H](CCC(=O)O)C(=O)N[C@@H](CCC(N)=O)C(=O)N[C@@H](C)C(=O)N[C@@H](CCC(=O)O)C(=O)N[C@@H](CCCCN)C(=O)N[C@@H](CC(N)=O)C(=O)N[C@@H](CCCCN)C(=O)N[C@@H](CCCNC(=N)N)C(=O)N[C@H](C(=O)N[C@@H](CC(C)C)C(=O)N[C@@H](CCC(=O)O)C(=O)N[C@@H](CCCNC(=N)N)C(=O)N[C@H](C(N)=O)C(C)C)[C@@H](C)CC)C(=O)O [compound 18] (H-IVLSLD[dV]PTKLK([γGlu-Palmitoyl])QKLLKQERQRKEREQAEKNKRILERV-NH2)
2 | 0.01 nM | – | – | – | > 1000 nM | 27% | 8600 µg/mL (≈ 1730 µM) | CCCCCCCCCCCCCCCC(=O)N[C@@H](CCC(=O)NCCCC[C@H](NC(=O)[C@H](CC(C)C)NC(=O)[C@H](CCCCN)NC(=O)[C@@H](NC(=O)[C@@H]1CCCN1C(=O)[C@H](NC(=O)[C@H](CC(=O)O)NC(=O)[C@H](CC(C)C)NC(=O)[C@H](CO)NC(=O)[C@H](CC(C)C)NC(=O)[C@@H](NC(=O)[C@@H](N)[C@@H](C)CC)C(C)C)C(C)C)[C@@H](C)O)C(=O)N[C@@H](CCC(N)=O)C(=O)N[C@@H](CCCCN)C(=O)N[C@@H](CC(C)C)C(=O)N[C@@H](CC(C)C)C(=O)N[C@@H](CCCCN)C(=O)N[C@@H](CCC(N)=O)C(=O)N[C@@H](CCC(=O)O)C(=O)N[C@@H](CCCNC(=N)N)C(=O)N[C@@H](CCC(N)=O)C(=O)N[C@@H](CCCNC(=N)N)C(=O)N[C@@H](CCCCN)C(=O)N[C@@H](CCC(=O)O)C(=O)N[C@@H](CCCNC(=N)N)C(=O)N[C@@H](CCC(=O)O)C(=O)N[C@@H](CCC(N)=O)C(=O)N[C@@H](C)C(=O)N[C@@H](CCC(=O)O)C(=O)N[C@@H](CCCCN)C(=O)N[C@@H](CC(N)=O)C(=O)N[C@H](C(=O)N[C@@H](CCCNC(=N)N)C(=O)N[C@H](C(=O)N[C@@H](CC(C)C)C(=O)N[C@@H](CCC(=O)O)C(=O)N[C@@H](CCCNC(=N)N)C(=O)N[C@H](C(N)=O)C(C)C)[C@@H](C)CC)C(C)C)C(=O)O [compound 32] (H-IVLSLD[dV]PTKLK([γGlu-Palmitoyl])QKLLKQERQRKEREQAEKNVRILERV-NH2)
3 | 0.65 nM | 2.04 nM | – | – | > 1000 nM | 13.3% | 10300 µg/mL (≈ 2000 µM) | CC[C@H](C)[C@H](N)C(=O)N[C@H](C(=O)N[C@@H](CC(C)C)C(=O)N[C@@H](CO)C(=O)N[C@@H](CC(C)C)C(=O)N[C@@H](CC(=O)O)C(=O)N[C@H](C(=O)N1CCC[C@H]1C(=O)N[C@H](C(=O)N[C@@H](CCCCN)C(=O)N[C@@H](CC(C)C)C(=O)N[C@@H](CCCCNC(=O)COCCOCCNC(=O)COCCOCCNC(=O)CC[C@H](NC(=O)CCCCCCCCCCCCCCCCC(=O)O)C(=O)O)C(=O)N[C@@H](CCC(N)=O)C(=O)N[C@H](C(=O)N[C@@H](CC(C)C)C(=O)N[C@@H](CC(C)C)C(=O)N[C@@H](CCC(=O)O)C(=O)N[C@@H](CCC(N)=O)C(=O)N[C@@H](CCC(=O)O)C(=O)N[C@@H](CCCNC(=N)N)C(=O)N[C@@H](CCC(N)=O)C(=O)N[C@@H](CCCNC(=N)N)C(=O)N[C@@H](CCCCN)C(=O)N[C@@H](CCC(=O)O)C(=O)N[C@@H](CCCNC(=N)N)C(=O)N[C@@H](CCC(N)=O)C(=O)N[C@@H](CCC(N)=O)C(=O)N[C@@H](C)C(=O)N[C@@H](CCC(=O)O)C(=O)N[C@H](C(=O)N[C@@H](CC(N)=O)C(=O)N[C@@H](C)C(=O)N[C@@H](CCC(N)=O)C(=O)N[C@H](C(=O)N[C@@H](CC(C)C)C(=O)N[C@@H](C)C(=O)N[C@@H](CCC(N)=O)C(=O)N[C@H](C(N)=O)C(C)C)[C@@H](C)CC)[C@@H](C)O)[C@@H](C)CC)[C@@H](C)CC)C(C)C)C(C)C [compound 39] (H-IVLSLDVPIKLK([AEEA-AEEA-γGlu-C18 diacid])QILLEQERQRKERQQAETNAQILAQV-NH2)
4 | 1.9 nM | 11.5 nM | – | – | – | – | > 9800 µg/mL | CC[C@H](C)[C@H](N)C(=O)N[C@H](C(=O)N[C@@H](CC(C)C)C(=O)N[C@@H](CO)C(=O)N[C@@H](CC(C)C)C(=O)N[C@@H](CC(=O)O)C(=O)N[C@H](C(=O)N1CCC[C@H]1C(=O)N[C@H](C(=O)N[C@@H](CCCCN)C(=O)N[C@@H](CC(C)C)C(=O)N[C@@H](CCCCNC(=O)COCCOCCNC(=O)COCCOCCNC(=O)CC[C@H](NC(=O)CCCCCCCCCCCCCCCCC(=O)O)C(=O)O)C(=O)N[C@@H](CCC(N)=O)C(=O)N[C@H](C(=O)N[C@@H](CC(C)C)C(=O)N[C@@H](CC(C)C)C(=O)N[C@@H](CCC(=O)O)C(=O)N[C@@H](CCC(N)=O)C(=O)N[C@@H](C)C(=O)N[C@@H](CCCCN)C(=O)N[C@@H](CCC(N)=O)C(=O)N[C@@H](CCCCN)C(=O)N[C@@H](CCCCN)C(=O)N[C@@H](CC(C)C)C(=O)N[C@@H](CCCNC(=N)N)C(=O)N[C@@H](C)C(=O)N[C@@H](CCC(N)=O)C(=O)N[C@@H](C)C(=O)N[C@@H](CCC(=O)O)C(=O)N[C@H](C(=O)N[C@@H](CC(N)=O)C(=O)N[C@H](C(=O)N[C@@H](CCCNC(=N)N)C(=O)N[C@H](C(=O)N[C@@H](CC(C)C)C(=O)N[C@@H](CCC(=O)O)C(=O)N[C@@H](CCCNC(=N)N)C(=O)N[C@H](C(N)=O)C(C)C)[C@@H](C)CC)C(C)C)[C@@H](C)O)[C@@H](C)CC)[C@@H](C)CC)C(C)C)C(C)C [compound 43] (H-IVLSLDVPIKLK([AEEA-AEEA-γGlu-C18 diacid])QILLEQAKQKKLRAQAETNVRILERV-NH2; N-terminus assumed)
